The text below walks through data of US20250205253A1, “PHARMACEUTICAL COMPOSITION FOR PREVENTING OR TREATING BENIGN PROSTATIC HYPERPLASIA” (University-Industry Cooperation Group of Kyung Hee …, priority 2023, published 2025).

Assay [1] relates to testosterone-induced BPH rat model. As to the kind of experiment: ROS assay on cells from rat prostate tissue. In kind it is in vivo. To be noted: dose-dependent, MitoQ 5 and 25 mg/kg/day; FIG. 5C. The source says: (§1) Six-week-old male Sprague-Dawley rats (n=40; 200 +20 g) were purchased from Daehan Biolink Co. (Daejeon, Korea). The animals were randomly allocated, four rats in each cage, and housed in accordance with the guidelines for the care and use of laboratory animals adopted and promulgated by Sangji University according to the requirements established by the National Institutes of Health. All experimental protocols were approved by the Institutional Animal Care and Use Committee (IACUC) of Sangji University before the initiation of the study (IACUC Animal Approval Protocol #2018-18). The rats were acclimatized to laboratory conditions for one week before initiating the experiment.
(§2) The rats in the control group were incised and sutured without removing the testicles following anesthesia using zoletil 50 (intraperitoneal injection, 10 mg/kg). […] Twenty-four hours after the final administration, all rats were euthanized following anesthesia with zoletil 50 (i.p., 20 mg/kg). Blood samples were drawn through cardiac puncture, and serum was obtained via centrifugation and stored at −80° C.
After the male rats were euthanized, the prostate tissues were excised and treated with type I collagenase (Thermo Fisher Scientific, MA, USA) to isolate the cells. […] The cells were incubated for 30 minutes at 37° C. and detected using a Muse® Cell Analyzer (Merck, Darmstadt, Germany).

Assay [2] has as its system DHT-stimulated RWPE-1 cells. The assay is described as follows: Western blot analysis in DHT-stimulated RWPE-1 cells. The note with it: DHT-stimulated RWPE-1, MitoQ 25, 50, 100 μM. Type of assay: cell-based, human. As to the method:
(§3) The RWPE-1 cells were cultured in a keratinocyte serum-free medium supplemented with 0.05 mg/mL bovine pituitary extract, 5 ng/mL human recombinant epidermal growth factor, and antibiotic-antimycotic solution (Gibco®, Big Cabin, OK, USA). The cells were cultured in a humidified environment at 37° C. and 5% CO2. The cells were cultured in a serum-free medium to block the effects of autocrine androgens.
(§4) Total protein was extracted from the RWPE-1 cells and rat prostate tissues, and a western blot analysis was performed. An antibody against AR (Cat. No. sc-7305) was purchased from Santa Cruz Biotechnology, Inc. (TX, USA). Boster Biological Technology (CA, USA) provided an antibody against a prostate-specific antigen (PSA; Cat. No. PB9259). An antibody against caspase-3 (Cat. No. #9661) was purchased from Cell Signaling Technology. Novus Biologicals (CO, USA) provided an antibody against NLRP3 (Cat. No. NBP2-12446). An antibody against IL-1β (Cat. No. 2105) was purchased from Abcam (Cambridge, UK).
(In general: A western blot detects proteins with antibodies after separation by electrophoresis.)

For assay [3], the system named is siRNA-transfected RWPE-1 cells. The assay is described as follows: siRNA transfection (NLRP3 or AR knockdown) with qRT-PCR in RWPE-1 cells. To be noted: DHT stimulation, with or without 100 μM MitoQ. Type of assay: cell-based, human. As for the experimental part:
(§5) Total RNA was isolated using Easy-Blue® reagent (iNtRON Biotechnology, Inc., Gyeonggi, Korea) and transcribed into complementary DNA (cDNA) according to the manufacturer's instructions. Oligonucleotide primers (Table 1) were purchased from Bioneer Corporation (Daejeon, Korea). qRT-PCR was performed according to the known method.
The RWPE-1 cells were transfected with siRNA (Bioneer Corporation) or pmaxGFP™ vector using a 4D-Nucleofector™ system (Lonza, Basel, Switzerland). The following siRNA nucleotide sequences were used: NLRP3 siRNA, […]=tt(1-AS) (SEQ ID NO.: 39) and […]=tt (1-AA) (SEQ ID NO.: 40) and AR siRNA, […]=tt (6-AS) (forward) (SEQ ID NO.: 41) and […]=tt (6-AA) (reverse) (SEQ ID NO.: 42). After four hours of incubation, the cells were treated in the presence or absence of MitoQ 100 μM. The effect of NLRP3 or AR knockdown was detected using qRT-PCR.
(Real-time PCR tracks product formation cycle by cycle.)

For assay [4], the system named is DHT-stimulated RWPE-1 cells. As to the kind of experiment: Mitochondrial activity and mtROS levels (MitoTracker, MitoSOX). Type of assay: cell-based, human. The note with it: DHT-stimulated RWPE-1, 100 μM MitoQ, 24 h; FIG. 1F.
For assay [5], the system named is DHT-stimulated RWPE-1 cells. The assay is described as follows: qRT-PCR mRNA expression in DHT-stimulated RWPE-1 cells. The note with it: for mRNA level of HO-1 and GPX-1: FIG. 1E. Type of assay: cell-based, human. As to the method: as §3, §5
For assay [6], the system named is DHT-stimulated RWPE-1 cells. As to the kind of experiment: CCK-8 assay, RWPE-1 cell proliferation under DHT stimulation. In kind it is cell-based, human. The note with it: 10 nM DHT, 24 h, FIG. 1C. As for the experimental part: as §3
The cell viability and proliferation were measured using the Cell Counting Kit-8 (CCK-8, Dojindo Molecular Technologies, Inc., D.C., USA). The RWPE-1 cells were plated to 96-well plates (1×10^5 cells/well) and incubated for 24 h. […] After the treatment, the CCK-8 solution was added to each well and incubated for four hours. The number of viable cells was monitored by measuring absorbance at 450 nm using an Epoch microplate reader (Biotek, Winooski, VT, USA).
On the technique in general: Tetrazolium dyes change colour on reduction, which living cells bring about.

Assay [7] has as its target T1, AR (PDB ID: 2AMA) (Homo sapiens, UniProt P10275).
T1 sequence (P10275 664-920 limits assumed): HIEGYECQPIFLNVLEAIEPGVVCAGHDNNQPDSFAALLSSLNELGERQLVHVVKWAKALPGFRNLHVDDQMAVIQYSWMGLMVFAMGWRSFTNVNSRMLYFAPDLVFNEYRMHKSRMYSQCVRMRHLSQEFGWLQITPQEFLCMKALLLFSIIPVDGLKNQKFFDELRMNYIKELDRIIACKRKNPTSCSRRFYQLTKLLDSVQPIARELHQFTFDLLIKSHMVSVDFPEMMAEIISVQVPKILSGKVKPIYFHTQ
As to the kind of experiment: Docking simulation (AutoDock Vina v1.1.2) on AR.

For assay [8], the system named is DHT-stimulated RWPE-1 cells. The assay is described as follows: ATP determination assay in DHT-stimulated RWPE-1 cells. In kind it is cell-based, human. To be noted: DHT-stimulated RWPE-1, MitoQ 25, 50, 100 μM, dose-dependent; FIG. 2F.
The subject of assay [9] is testosterone-induced BPH rat model. The assay is described as follows: Western blot of prostate tissue of rats with BPH. Type of assay: in vivo. As for the experimental part:
as §4, §1, §2

Assay [10] shares this test system. As to the kind of experiment: Serum DHT and testosterone measurement (ELISA) in rats with BPH. In kind it is in vivo.
Excerpt: as §1, §2
The serum DHT and testosterone levels were quantified using commercial ELISA kits (Cusabio, TX, USA). The assays were performed according to the manufacturer's instructions.

As for mitoquinone, in assay [1], the “intracellular ROS generation in prostate cells” value is on record as “significantly suppressed”. The “SOD2 and catalase protein expression” value in assay [2] (FIG. 1G) is recorded as “significantly increased”. The PSA protein expression result in assay [2] (FIG. 3C) was “considerably suppressed”. In addition, the “AR level (mRNA) in NLRP3 siRNA-transfected cells” value in [3] (FIG. 3D) is recorded as “notably downregulated”. Moreover, the “NLRP3 level (mRNA) in AR siRNA-transfected cells” value in [3] (FIG. 3E) was “significantly suppressed”. In [4], the “excessive production of mtROS” value is recorded as “suppressed”. For the same substance, the “mRNA level of HO-1 and GPX-1” value in [5] (DHT-stimulated RWPE-1, 100 μM MitoQ) is reported as “significantly increased”; in assay [5] (DHT-stimulated RWPE-1, MitoQ treatment) it was “normalized”. For the same substance, the “mRNA expression of NLRP3, PYCARD, and IL-1β” value in assay [5] (DHT-stimulated RWPE-1, MitoQ 25, 50, 100 μM, FIG. 2B) is recorded as “significantly reduced”. For the same substance, the “mRNA level of AR, 5α-reductase 2, and PSA” value in [5] (DHT-stimulated RWPE-1, MitoQ 25, 50, 100 μM, FIG. 3B) is “notably inhibited”. Besides, the “concentration of MitoQ significantly suppressing DHT-stimulated RWPE-1 cell proliferation” value in [6] is recorded as at least 6.25 μM. Also, the “difference between the affinity values of DHT and MitoQ for AR” value in assay [7] is around 1 kcal/mol. In addition, the ATP level entry in assay [8] is “significantly reduced”. Also, the “overexpression of NLRP3, pro-caspase 1, cleaved caspase 1, and IL-1β proteins” value in assay [9] (FIGS. 6D, 6E) is “suppressed”. For the same substance, the “expression of catalase and SOD2 (protein)” value in assay [9] (vs BPH groups, FIG. 5E) is “significantly higher”. For the same substance, the “protein expression of PSA” value in [9] (vs BPH groups, FIG. 7D) is “decreased”. The “serum DHT overproduction” value in assay [10] (FIG. 7A) is “significantly suppressed”. The “circulating (serum) testosterone level” value in assay [10] (MitoQ 25 mg/kg, Saw 100 mg/kg/day, FIG. 7E) was “significantly reduced”.
